US7326574B2, “Compositions and methods for detecting stress-inducible proteins” (Stressgen Biotechnologies Corporation, priority 1999, dated 2008)

How the values were obtained:
hsp70B′ mRNA = settings: Leung et al., Biochem. J. 267:125-132, 1990; cited from earlier work
[1] = tested on: HeLa, Jurkat and A-431 human cell lines; experiment: Relative induction of Hsc70, Hsp70A and Hsp70B′ proteins; assay type: cell-based
Jurkat cells = experiment: Induction of Hsc70, Hsp70A and Hsp70B′ proteins under different induction conditions, Western blotting; assay type: cell-based, human; settings: Azetidine 5 μM, 5 hours, CdCl2 100 μM, 2 hours, ZnCl2 250 μM
HeLa cells = experiment: as above; assay type: cell-based, human; settings: Azetidine 5 μM, 5 hours, CdCl2 100 μM, 2 hours, ZnCl2 250 μM; for Induction of Hsc70, relative protein level: 20 ug total cell lysate
A431 cells = experiment: as above; assay type: cell-based, human; settings: Azetidine 5 μM, 5 hours, CdCl2 100 μM, 2 hours, ZnCl2 250 μM
Hsp70B′ [2] = target: T1, Hsp70B′ (Homo sapiens, UniProt P17066); experiment: Indirect EIA, relative titre index; assay type: binding
T1 construct: E. coli BL21 (DE3) cells harboring the expression plasmid for full length human Hsp70B′; made in house; host or cells: E. coli BL21 (DE3) / BLR (DE3), pET24a

unconjugated CE peptide = target: T2, unconjugated CE peptide (Homo sapiens, UniProt P17066); experiment: Indirect EIA, relative titre index; assay type: binding; settings: relative to irrelevant antibody
T2 construct: purchased Research Genetics, Inc; host or cells: chemical synthesis

[3] = target: T3, recombinant hamster Grp78 (Mesocricetus auratus, UniProt P07823); experiment: Indirect EIA, relative titre index; assay type: binding; settings: Grp78 Protein; relative to irrelevant antibody
T3 construct: purchased Stressgen Biotechnologies SPP-765

immunizing peptide = experiment: Anti-peptide titre ELISA with peptide on the solid phase; assay type: binding, human; settings: rabbit host
Description: Methods: Hsp70B′ Antibodies were produced as follows. Hsp70B′ antibodies were produced in rabbits, goats and mice with either synthetic peptides or recombinant Hsp70B′ protein as immunogen. Eight peptides were chosen from the human Hsp70B′ amino acid sequence. One of the Hsp70B′ peptides, the NT peptide […](C) (SEQ ID NO:9) corresponded to an N-terminal fragment. […] Sera were collected at various time points and the antibody response to the immunizing protein or peptide was evaluated in an indirect enzyme immunoassay (EIA). Titres were established as the dilution factor at which the absorbance in the test sample was equal to 0.2 optical density units. […]
Anti-peptide titre was determined as follows. […] The anti-peptide titres in the rabbits, goats, and mice were determined in an ELISA with peptide on the solid phase. […]
Biotinylated secondary antibodies (100 μl) were added to each microtitre plate test well and incubated for four hours at room temperature. […] The plates were read at 414 λ, 20 minutes following the addition of substrate. Titres were established as the reciprocal dilution factor at which the test sample was equal to 0.2 absorbance units.

recombinant bovine Hsc70 = target: T4, recombinant bovine Hsc70 (Bos taurus, UniProt P19120); experiment: Indirect EIA, relative titre index; assay type: binding; settings: Hsc70 Protein; relative to irrelevant antibody
T4 construct: purchased Stressgen Biotechnologies SPP-751

E. coli DnaK = E. coli DnaK (Escherichia coli, UniProt P0A6Y8)
unconjugated TCB peptide = target: T5, unconjugated TCB peptide (Homo sapiens, UniProt P17066); experiment: Indirect EIA, relative titre index; assay type: binding; settings: relative to irrelevant antibody
T5 construct: purchased Research Genetics, Inc; host or cells: chemical synthesis

[4] = target: recombinant M. tuberculosis Hsp71 (Mycobacterium tuberculosis, UniProt P9WMJ9)
unconjugated ECB peptide = target: T6, unconjugated ECB peptide (Homo sapiens, UniProt P17066); experiment: Indirect EIA, relative titre index; assay type: binding; settings: relative to irrelevant antibody
T6 construct: purchased Research Genetics, Inc; host or cells: chemical synthesis

Hsp70B′ [5] = target: T1, Hsp70B′; experiment: Western blotting of HSP70 family members; assay type: binding; settings: SDS-denatured recombinant protein; band intensity 0-3
unconjugated CB2 peptide = target: T7, unconjugated CB2 peptide (Homo sapiens, UniProt P17066); experiment: Indirect EIA, relative titre index; assay type: binding; settings: relative to irrelevant antibody
T7 construct: The CB peptide was also resynthesized on a separate occasion and designated CB2; purchased Research Genetics, Inc; host or cells: chemical synthesis

recombinant human Hsp70A = target: T8, recombinant human Hsp70A (Homo sapiens, UniProt P0DMV8); experiment: Indirect EIA, relative titre index; assay type: binding; settings: Hsp70A Protein; relative to irrelevant antibody
T8 construct: purchased Stressgen Biotechnologies SPP-755

[6] = target: T9, 68 kDa (Hsp70B′) protein from HeLa cell lysates (Homo sapiens, UniProt P17066); experiment: Immunoblotting of unstressed and heat stressed human cell lysates; assay type: binding; design: key to Reactivity with 68 kDa (Hsp70B′) protein, HeLa: 0 = no signal; 3 = a very strong signal
T9 construct: endogenous in cells; host or cells: HeLa (ATCC CCL-2), unstressed and heat stressed
T9 sequence (P17066 whole entry): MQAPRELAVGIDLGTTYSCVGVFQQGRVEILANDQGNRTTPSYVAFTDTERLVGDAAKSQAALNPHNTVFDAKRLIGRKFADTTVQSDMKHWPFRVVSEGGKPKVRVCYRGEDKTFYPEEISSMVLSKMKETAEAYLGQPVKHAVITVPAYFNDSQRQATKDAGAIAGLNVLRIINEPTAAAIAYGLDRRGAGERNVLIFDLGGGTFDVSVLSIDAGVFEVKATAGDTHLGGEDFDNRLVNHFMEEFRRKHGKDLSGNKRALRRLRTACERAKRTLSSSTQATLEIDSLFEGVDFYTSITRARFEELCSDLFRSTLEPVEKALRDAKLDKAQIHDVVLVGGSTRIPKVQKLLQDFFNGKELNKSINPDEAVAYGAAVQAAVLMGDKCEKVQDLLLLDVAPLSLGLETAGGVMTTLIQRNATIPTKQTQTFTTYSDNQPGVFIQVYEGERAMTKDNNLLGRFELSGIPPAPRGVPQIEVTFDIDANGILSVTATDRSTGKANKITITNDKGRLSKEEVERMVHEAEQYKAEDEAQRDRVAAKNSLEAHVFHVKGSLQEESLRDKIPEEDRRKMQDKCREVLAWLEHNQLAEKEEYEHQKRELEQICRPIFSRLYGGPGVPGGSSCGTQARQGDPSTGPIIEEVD

T1 sequence (P17066 whole entry): as above
Sequence of E. coli DnaK (P0A6Y8 whole entry): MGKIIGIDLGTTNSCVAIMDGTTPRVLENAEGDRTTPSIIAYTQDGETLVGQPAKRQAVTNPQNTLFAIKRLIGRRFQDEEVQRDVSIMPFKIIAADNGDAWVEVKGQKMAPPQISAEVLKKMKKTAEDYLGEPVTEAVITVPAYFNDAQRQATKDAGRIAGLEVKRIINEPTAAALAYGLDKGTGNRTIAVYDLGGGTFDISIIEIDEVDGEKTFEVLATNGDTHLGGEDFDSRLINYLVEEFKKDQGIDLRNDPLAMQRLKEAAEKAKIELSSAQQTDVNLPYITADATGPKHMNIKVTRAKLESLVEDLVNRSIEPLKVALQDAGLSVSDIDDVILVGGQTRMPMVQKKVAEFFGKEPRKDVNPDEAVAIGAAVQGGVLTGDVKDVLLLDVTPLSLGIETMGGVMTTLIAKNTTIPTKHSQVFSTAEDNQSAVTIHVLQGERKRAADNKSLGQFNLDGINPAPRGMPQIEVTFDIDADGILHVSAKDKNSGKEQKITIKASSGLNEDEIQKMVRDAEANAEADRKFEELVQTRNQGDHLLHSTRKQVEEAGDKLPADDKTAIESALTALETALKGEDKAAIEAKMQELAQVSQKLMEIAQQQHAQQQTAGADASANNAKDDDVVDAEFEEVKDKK
T4 sequence (P19120 whole entry): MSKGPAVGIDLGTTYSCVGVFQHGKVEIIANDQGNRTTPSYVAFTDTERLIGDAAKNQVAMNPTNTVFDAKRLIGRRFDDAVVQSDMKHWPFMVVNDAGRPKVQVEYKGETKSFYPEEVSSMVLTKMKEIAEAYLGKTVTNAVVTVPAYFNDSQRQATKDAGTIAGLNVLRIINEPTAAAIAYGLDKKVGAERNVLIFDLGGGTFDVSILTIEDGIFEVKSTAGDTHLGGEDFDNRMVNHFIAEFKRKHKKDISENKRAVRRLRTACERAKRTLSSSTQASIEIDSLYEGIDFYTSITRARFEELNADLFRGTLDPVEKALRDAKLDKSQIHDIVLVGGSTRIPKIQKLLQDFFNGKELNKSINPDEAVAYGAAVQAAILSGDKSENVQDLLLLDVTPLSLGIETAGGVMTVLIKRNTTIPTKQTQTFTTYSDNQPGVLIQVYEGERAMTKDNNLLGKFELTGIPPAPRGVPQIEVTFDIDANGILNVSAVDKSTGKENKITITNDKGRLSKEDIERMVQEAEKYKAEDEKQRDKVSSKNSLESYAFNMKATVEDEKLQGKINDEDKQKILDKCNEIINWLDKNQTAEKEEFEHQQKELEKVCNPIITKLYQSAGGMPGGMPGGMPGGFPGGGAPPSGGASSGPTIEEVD
T3 sequence (P07823 19-654): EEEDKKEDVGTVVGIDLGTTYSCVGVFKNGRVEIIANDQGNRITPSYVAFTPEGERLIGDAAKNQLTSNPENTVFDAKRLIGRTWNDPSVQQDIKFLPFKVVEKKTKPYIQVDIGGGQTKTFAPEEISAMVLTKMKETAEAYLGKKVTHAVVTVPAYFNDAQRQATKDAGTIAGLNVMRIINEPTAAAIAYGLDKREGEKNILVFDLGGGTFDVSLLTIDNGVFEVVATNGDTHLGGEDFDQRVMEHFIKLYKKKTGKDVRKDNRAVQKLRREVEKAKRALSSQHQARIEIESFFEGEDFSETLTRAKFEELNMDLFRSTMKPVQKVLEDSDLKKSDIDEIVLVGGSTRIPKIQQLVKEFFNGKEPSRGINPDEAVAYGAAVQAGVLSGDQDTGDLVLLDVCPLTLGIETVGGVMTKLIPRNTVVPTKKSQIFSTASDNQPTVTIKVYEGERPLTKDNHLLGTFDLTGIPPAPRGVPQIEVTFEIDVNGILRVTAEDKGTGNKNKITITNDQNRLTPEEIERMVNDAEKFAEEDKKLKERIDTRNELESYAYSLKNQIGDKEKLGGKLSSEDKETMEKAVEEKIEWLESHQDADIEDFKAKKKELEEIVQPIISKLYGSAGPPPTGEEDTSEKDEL
T8 sequence (P0DMV8 whole entry): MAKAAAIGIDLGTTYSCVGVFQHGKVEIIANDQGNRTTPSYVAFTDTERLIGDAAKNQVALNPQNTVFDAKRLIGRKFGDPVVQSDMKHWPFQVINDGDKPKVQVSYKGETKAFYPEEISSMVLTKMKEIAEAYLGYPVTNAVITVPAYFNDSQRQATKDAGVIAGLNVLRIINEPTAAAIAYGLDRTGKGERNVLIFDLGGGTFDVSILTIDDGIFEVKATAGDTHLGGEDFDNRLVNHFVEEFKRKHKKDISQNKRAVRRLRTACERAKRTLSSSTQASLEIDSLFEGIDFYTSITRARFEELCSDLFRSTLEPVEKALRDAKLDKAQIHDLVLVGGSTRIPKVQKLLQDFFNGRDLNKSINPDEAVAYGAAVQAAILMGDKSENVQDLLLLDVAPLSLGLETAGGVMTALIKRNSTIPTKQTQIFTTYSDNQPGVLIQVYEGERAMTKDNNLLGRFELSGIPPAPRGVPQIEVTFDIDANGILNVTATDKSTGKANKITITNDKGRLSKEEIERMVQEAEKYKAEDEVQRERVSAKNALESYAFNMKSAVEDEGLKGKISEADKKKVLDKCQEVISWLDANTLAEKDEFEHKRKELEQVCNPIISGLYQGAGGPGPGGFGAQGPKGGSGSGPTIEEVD
Sequence of recombinant M. tuberculosis Hsp71 (P9WMJ9 whole entry): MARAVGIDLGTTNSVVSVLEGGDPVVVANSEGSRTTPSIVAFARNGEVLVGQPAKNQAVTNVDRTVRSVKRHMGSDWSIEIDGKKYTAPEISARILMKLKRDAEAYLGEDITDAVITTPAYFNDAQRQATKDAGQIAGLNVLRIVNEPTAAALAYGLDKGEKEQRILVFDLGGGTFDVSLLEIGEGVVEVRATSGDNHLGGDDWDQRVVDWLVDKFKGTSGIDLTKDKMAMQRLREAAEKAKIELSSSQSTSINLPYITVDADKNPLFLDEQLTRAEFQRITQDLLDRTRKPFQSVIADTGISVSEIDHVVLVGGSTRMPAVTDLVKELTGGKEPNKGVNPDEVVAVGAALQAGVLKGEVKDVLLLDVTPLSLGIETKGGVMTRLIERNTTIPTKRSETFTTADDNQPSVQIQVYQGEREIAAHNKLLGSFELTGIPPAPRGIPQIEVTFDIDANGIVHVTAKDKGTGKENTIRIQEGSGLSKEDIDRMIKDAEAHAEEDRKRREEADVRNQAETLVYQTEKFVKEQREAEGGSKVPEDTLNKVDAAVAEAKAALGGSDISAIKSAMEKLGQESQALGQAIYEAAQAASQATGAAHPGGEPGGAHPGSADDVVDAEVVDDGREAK

Row | Compound | Expression of the constitutive Hsc70 protein [1] | Induction of Hsp70B′ protein [1] | Induction of Hsc70, relative protein level (Jurkat cells) | Induction of Hsp70A, relative protein level (Jurkat cells) | Induction of Hsp70A/B′, relative protein level (Jurkat cells) | Induction of Hsp70B′, relative protein level (Jurkat cells) | Induction of Hsp70A, relative protein level (HeLa cells) | Induction of Hsp70A/B′, relative protein level (HeLa cells) | Induction of Hsp70B′, relative protein level (HeLa cells) | Induction of Hsc70, relative protein level (HeLa cells) | Induction of Hsc70, relative protein level (A431 cells) | Induction of Hsp70A, relative protein level (A431 cells) | Induction of Hsp70A/B′, relative protein level (A431 cells) | Induction of Hsp70B′, relative protein level (A431 cells) | also measured
1 | [Cl][Cd][Cl] [CdCl2] | not affected | induced | +3 | +2 | +2 | +3 | +3 | +3 | +2 | +3 | +3 | +2 | +3 | +1 | hsp70B′ mRNA after treatment (hsp70B′ mRNA): only trace amounts
2 | [Cl-].[Cl-].[Zn+2] [ZnCl2] | not affected | induced | +3 | +2 | +1 | +1 | +3 | +3 | +1 | +3 | +3 | +2 | +3 | +2 | 
3 | ECB (VPGGSSCGTQARQGDPSTGPI) |  |  |  |  |  |  |  |  |  |  |  |  |  |  | Relative Titre Index (Hsp70B′ [2]; Hsp70B′ Protein, relative to irrelevant antibody, rabbit antibody): ≧41; Preferential reactivity with Hsp70B′ over other HSP70 protein homologs (Hsp70B′ [2]; based on absolute relative titre index values): 41 fold; Relative Titre Index (unconjugated CE peptide): 1; Relative Titre Index [3]: 1; # Animals Responding (immunizing peptide): 3/3; Antisera Titer (EIA) (immunizing peptide; individual animals, reciprocal dilution giving 0.2 absorbance units): >204800; Relative Titre Index (recombinant bovine Hsc70): 1; Relative Titre Index (E. coli DnaK): 1; Relative Titre Index (unconjugated TCB peptide): *1; Relative Titre Index [4]: 1; Relative Titre Index (unconjugated ECB peptide): ≧129; Hsp70B′ Reactivity Rec. protein (Hsp70B′ [5]): 3; Relative Titre Index (unconjugated CB2 peptide): ≧86; Relative Titre Index (recombinant human Hsp70A): 1; Reactivity with 68 kDa (Hsp70B′) protein, HeLa HS ([6]; heat stressed HeLa lysate, 10-20 μg): 3; Antisera that specifically detected Hsp70B′ in immunoblots (fraction of rabbits) ([6]; sera from three individual rabbits): ⅓; Reactivity with 68 kDa (Hsp70B′) protein, HeLa ([6]; unstressed HeLa lysate, 10-20 μg): 0
